# Patent US20210244029A1, “ANTIMICROBIAL COMPOSITIONS” (Aseptic Health, LLC, priority 2019, published 2021)
# System: Pseudomonas aeruginosa ATCC 27853
# Experiment: Minimal inhibitory concentration (MIC) by serial 1:2 dilutions
# Assay type: cell-based
# Settings: MIC = greatest dilution at which 100% of a starting culture of 1 × 10^6 bacteria are killed
substance,measurement,value
Sodium Chlorite [0.5% Sodium Chlorite],MIC against Pseudomonas aeruginosa ATCC 27853,⅛
